ChEMBL document CHEMBL4038324, “Amidoalkylindoles as Potent and Selective Cannabinoid Type 2 Receptor Agonists with in Vivo Efficacy in a Mouse Model of Multiple Sclerosis” (J Med Chem, 2017)
Activity calls are given as the source filed them. The rule behind the calls is not given here.

Columns and labels:
[1] = molecular target: T1, Cannabinoid receptor 1 (Homo sapiens, UniProt P21554); assay: Agonist activity at human CB1 receptor expressed in CHO cells assessed as induction of Ca2+ flux at 10 uM after 10 mins by Fluor-4 AM dye based assay; type: cell-based
T1 sequence (P21554 whole entry): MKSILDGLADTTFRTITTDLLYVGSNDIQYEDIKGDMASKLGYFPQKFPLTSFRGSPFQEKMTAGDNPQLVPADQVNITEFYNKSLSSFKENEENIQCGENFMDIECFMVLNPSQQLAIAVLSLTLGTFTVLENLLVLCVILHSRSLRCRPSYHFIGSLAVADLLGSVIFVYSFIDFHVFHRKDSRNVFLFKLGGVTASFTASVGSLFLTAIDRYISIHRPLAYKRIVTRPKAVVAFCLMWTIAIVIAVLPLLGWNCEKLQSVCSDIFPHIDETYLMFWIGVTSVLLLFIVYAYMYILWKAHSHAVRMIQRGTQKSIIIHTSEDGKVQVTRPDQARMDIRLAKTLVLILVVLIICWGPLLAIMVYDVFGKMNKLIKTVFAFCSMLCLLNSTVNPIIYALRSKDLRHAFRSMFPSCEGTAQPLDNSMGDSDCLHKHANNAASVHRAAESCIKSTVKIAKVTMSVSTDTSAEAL

[2] = molecular target: T2, Cannabinoid receptor 2 (Homo sapiens, UniProt P34972); assay: Agonist activity at human CB2 receptor expressed in CHO cells assessed as induction of Ca2+ flux after 10 mins by Fluor-4 AM dye based assay; type: functional, cell-based
T2 sequence (P34972 whole entry): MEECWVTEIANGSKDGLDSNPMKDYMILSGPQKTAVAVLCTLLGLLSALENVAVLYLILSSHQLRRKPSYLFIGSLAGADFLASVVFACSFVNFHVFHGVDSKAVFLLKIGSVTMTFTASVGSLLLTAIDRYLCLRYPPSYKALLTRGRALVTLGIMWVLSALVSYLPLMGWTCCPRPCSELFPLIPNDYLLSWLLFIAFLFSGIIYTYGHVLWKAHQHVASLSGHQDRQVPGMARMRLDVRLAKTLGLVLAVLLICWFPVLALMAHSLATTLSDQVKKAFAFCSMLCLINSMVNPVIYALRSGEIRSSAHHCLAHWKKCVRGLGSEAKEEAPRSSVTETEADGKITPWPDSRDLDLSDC

[3] = molecular target: T2, Cannabinoid receptor 2; assay: Agonist activity at human CB2 receptor expressed in CHO cells assessed as induction of Ca2+ flux after 10 mins by Fluor-4 AM dye based assay relative to CP55940; type: functional, cell-based
[4] = molecular target: T2, Cannabinoid receptor 2; assay: Antagonist activity at human CB2 receptor expressed in CHO cells assessed as inhibition of CP55940-induced Ca2+ flux at 10 uM preincubated for 10 mins followed by agonist addition by Fluor-4 AM dye based assay; type: functional, cell-based
[5] = molecular target: T3, Cannabinoid receptor 1 (CB1) (Homo sapiens, UniProt P21554); assay: Antagonist activity at human CB1 receptor expressed in CHO cells assessed as inhibition of CP55940-induced Ca2+ flux at 10 uM preincubated for 10 mins followed by agonist addition by Fluor-4 AM dye based assay; type: cell-based; details: CHO cells expressing human CB1 receptor
T3 sequence (P21554 whole entry): as the sequence (P21554 whole entry) above

[6] = molecular target: T2, Cannabinoid receptor 2; assay: Agonist activity at human CB2 receptor expressed in CHO cells assessed as induction of Ca2+ flux at 10 uM after 10 mins by Fluor-4 AM dye based assay; type: functional, cell-based
[7] = molecular target: T2, Cannabinoid receptor 2; assay: Antagonist activity at human CB2 receptor expressed in CHO cells assessed as inhibition of CP55940-induced Ca2+ flux preincubated for 10 mins followed by agonist addition by Fluor-4 AM dye based assay; type: functional, cell-based
[8] = molecular target: T3, Cannabinoid receptor 1 (CB1); assay: Agonist activity at human CB1 receptor expressed in CHO cells assessed as induction of Ca2+ flux after 10 mins by Fluor-4 AM dye based assay relative to CP55940; type: cell-based; details: CHO cells expressing human CB1 receptor
[9] = molecular target: T1, Cannabinoid receptor 1; assay: Agonist activity at human CB1 receptor expressed in CHO cells assessed as induction of Ca2+ flux after 10 mins by Fluor-4 AM dye based assay; type: cell-based
[10] = molecular target: Cannabinoid receptor 1 (Rattus norvegicus, UniProt P20272); assay: Agonist activity at rat CB1 receptor expressed in mouse AtT20 cells by FLIPR membrane potential assay; type: cell-based
Sequence of Cannabinoid receptor 1 (Rattus norvegicus, UniProt P20272) (P20272 whole entry): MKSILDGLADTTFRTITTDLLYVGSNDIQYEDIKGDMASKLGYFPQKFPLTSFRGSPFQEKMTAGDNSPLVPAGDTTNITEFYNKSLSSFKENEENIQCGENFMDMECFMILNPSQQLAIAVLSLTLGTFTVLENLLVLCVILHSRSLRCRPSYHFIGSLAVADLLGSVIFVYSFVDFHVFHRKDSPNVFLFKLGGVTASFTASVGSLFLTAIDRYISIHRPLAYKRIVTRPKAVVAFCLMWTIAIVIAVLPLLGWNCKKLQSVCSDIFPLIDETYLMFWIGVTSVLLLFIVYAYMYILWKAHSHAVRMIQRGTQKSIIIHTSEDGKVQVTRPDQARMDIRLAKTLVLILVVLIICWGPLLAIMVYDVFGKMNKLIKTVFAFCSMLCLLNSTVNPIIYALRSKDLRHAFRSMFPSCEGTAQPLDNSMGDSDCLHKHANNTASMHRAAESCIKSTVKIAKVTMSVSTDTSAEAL

[11] = molecular target: T2, Cannabinoid receptor 2; assay: Agonist activity at human N-terminal HA-tagged CB2 receptor expressed in mouse AtT20 cells by FLIPR membrane potential assay; type: cell-based

CC(C)(C)NC(=O)c1cc2ccccc2n1CCCCCO
Activity [1]: < 50%
EC50 [2]: 430 nM
Emax [3]: 51.7%
inhibition [4]: < 50%
inhibition at 10 min, 10 µM [5]: < 50%

CCCCCn1c(C(=O)NC23CC4CC(CC(C4)C2)C3)cc2ccccc21
Activity [1]: < 50%
EC50 [2]: 720 nM
Emax [3]: 53.3%
inhibition [4]: < 50%
inhibition at 10 min, 10 µM [5]: < 50%

N#CCn1cc(C(=O)NC23CC4CC(CC(C4)C2)C3)c2ccccc21
Activity [1]: < 50%
EC50 [2]: 410 nM
Emax [3]: 66.3%
inhibition [4]: < 50%
inhibition at 10 min, 10 µM [5]: < 50%

COc1cccc2c(C(=O)NC34CC5CC(CC(C5)C3)C4)cn(CCN3CCOCC3)c12
Activity [1]: < 50%
Activity [6]: < 50%
IC50 [7]: 16 nM
EC50 [2]: > 100000 nM
inhibition at 10 min, 10 µM [5]: < 50%

O=C(NC12CC3CC(CC(C3)C1)C2)c1cc2ccccc2n1CCN1CCOC1=O
Activity [1]: < 50%
EC50 [2]: 220 nM
Emax [3]: 66.7%
inhibition [4]: < 50%
inhibition at 10 min, 10 µM [5]: < 50%

O=C(NC12CC3CC(CC(C3)C1)C2)c1cc2ccccc2n1CC1CCOCC1
Activity [1]: < 50%
EC50 [2]: 410 nM
Emax [3]: 41.7%
inhibition [4]: < 50%
inhibition at 10 min, 10 µM [5]: < 50%

O=C(NC12CC3CC(CC(C3)C1)C2)c1cc2ccccc2[nH]1
Activity [1]: < 50%
EC50 [2]: 980 nM
Emax [3]: 66.7%
inhibition [4]: < 50%
inhibition at 10 min, 10 µM [5]: < 50%

O=C(NC12CC3CC(CC(C3)C1)C2)c1c[nH]c2ccccc12
Activity [1]: < 50%
EC50 [2]: 630 nM
Emax [3]: 75%
inhibition [4]: < 50%
inhibition at 10 min, 10 µM [5]: < 50%

N#CCCCCn1c(C(=O)Nc2ccccc2)cc2ccccc21
Activity [1]: < 50%
EC50 [2]: 200 nM
Emax [3]: 48.3%
inhibition [4]: < 50%
inhibition at 10 min, 10 µM [5]: < 50%

N#CCCCCn1c(C(=O)NC23CC4CC(CC(C4)C2)C3)cc2ccccc21
Activity [1]: < 50%
EC50 [2]: 75 nM
Emax [3]: 41.7%
inhibition [4]: < 50%
inhibition at 10 min, 10 µM [5]: < 50%

O=C(NC12CC3CC(CC(C3)C1)C2)c1[nH]c2ccccc2c1F
Activity [1]: < 50%
EC50 [2]: 3800 nM
Emax [3]: 83.3%
inhibition [4]: < 50%
inhibition at 10 min, 10 µM [5]: < 50%

O=C(NC12CC3CC(CC(C3)C1)C2)c1c(F)c2ccccc2n1CCCCO
Activity [1]: < 50%
EC50 [2]: 410 nM
Emax [3]: 46.7%
inhibition [4]: < 50%
inhibition at 10 min, 10 µM [5]: < 50%

CSc1cccc2c(C(=O)NC34CC5CC(CC(C5)C3)C4)cn(CCN3CCOCC3)c12
Activity [1]: < 50%
Activity [6]: < 50%
IC50 [7]: 28 nM
EC50 [2]: > 100000 nM
inhibition at 10 min, 10 µM [5]: < 50%

O=C(NC12CC3CC(CC(C3)C1)C2)c1cc2ccccc2n1CCCO
Activity [1]: < 50%
EC50 [2]: 160 nM
Emax [3]: 86.7%
inhibition [4]: < 50%
inhibition at 10 min, 10 µM [5]: < 50%

O=C(NC12CC3CC(CC(C3)C1)C2)c1cn(CC2CCOCC2)c2ccccc12
EC50 [2]: 38 nM
Emax at 10 min [8]: 133%
EC50 [9]: 84 nM
Emax [3]: 76.7%
inhibition [4]: < 50%
inhibition at 10 min, 10 µM [5]: < 50%

O=C(NC12CC3CC(CC(C3)C1)C2)c1cn(CCN2CCOCC2)c2ccccc12
IC50 [7]: > 100000 nM
EC50 [2]: 59 nM
Emax at 10 min [8]: 75%
EC50 [9]: 3300 nM
Emax [3]: 56.7%
inhibition [4]: < 50%
inhibition at 10 min, 10 µM [5]: < 50%

COc1ccc2c(c1)c(C(=O)NC13CC4CC(CC(C4)C1)C3)cn2CCN1CCOCC1
Activity [1]: < 50%
Activity [6]: < 50%
inhibition [4]: < 50%
inhibition at 10 min, 10 µM [5]: < 50%

O=CCCCCn1c(C(=O)NC23CC4CC(CC(C4)C2)C3)cc2ccccc21
Activity [1]: < 50%
EC50 [2]: 180 nM
Emax [3]: 73.3%
inhibition [4]: < 50%
inhibition at 10 min, 10 µM [5]: < 50%

CCCCCn1cc(C(=O)C23CC4CC(CC(C4)C2)C3)c2ccccc21
EC50 [10]: 35 to 40 nM
EC50 [11]: 29 to 89 nM

O=C(NC12CC3CC(CC(C3)C1)C2)c1cc2ccccc2n1CCCCC(F)F
Activity [1]: < 50%
EC50 [2]: 92 nM
Emax [3]: 60%
inhibition [4]: < 50%
inhibition at 10 min, 10 µM [5]: < 50%

O=C(NC12CC3CC(CC(C3)C1)C2)c1cc2ccccc2n1CCCCCO
Activity [1]: < 50%
EC50 [2]: 100 nM
Emax [3]: 70%
inhibition [4]: < 50%
inhibition at 10 min, 10 µM [5]: < 50%

O=C(O)CCCCn1c(C(=O)NC23CC4CC(CC(C4)C2)C3)cc2ccccc21
Activity [1]: < 50%
EC50 [2]: 7130 nM
Emax [3]: 43.3%
inhibition [4]: < 50%
inhibition at 10 min, 10 µM [5]: < 50%

O=C(NC1CCCCC1)c1cc2ccccc2n1CCCCCO
Activity [1]: < 50%
EC50 [2]: 420 nM
Emax [3]: 50%
inhibition [4]: < 50%
inhibition at 10 min, 10 µM [5]: < 50%

Cc1cccc2c(C(=O)NC34CC5CC(CC(C5)C3)C4)c[nH]c12
Activity [1]: < 50%
EC50 [2]: 500 nM
Emax [3]: 60%
inhibition [4]: < 50%
inhibition at 10 min, 10 µM [5]: < 50%

N=C(N)NCCCCCn1c(C(=O)NC23CC4CC(CC(C4)C2)C3)cc2ccccc21
Activity [1]: < 50%
Activity [6]: < 50%
inhibition [4]: < 50%
inhibition at 10 min, 10 µM [5]: < 50%

N#CCCn1c(C(=O)NC23CC4CC(CC(C4)C2)C3)cc2ccccc21
Activity [1]: < 50%
EC50 [2]: 150 nM
Emax [3]: 93.3%
inhibition [4]: < 50%
inhibition at 10 min, 10 µM [5]: < 50%

Cc1cccc2c(C(=O)NC34CC5CC(CC(C5)C3)C4)cn(CCN3CCOCC3)c12
Activity [6]: < 50%
Emax at 10 min [8]: 63.3%
EC50 [9]: 6700 nM
Emax [3]: inactive
inhibition [4]: < 50%
inhibition at 10 min, 10 µM [5]: < 50%

COCCCCCn1cc(C(=O)NC23CC4CC(CC(C4)C2)C3)c2ccccc21
Activity [1]: < 50%
EC50 [2]: 82 nM
Emax [3]: 70%
inhibition [4]: < 50%
inhibition at 10 min, 10 µM [5]: < 50%

COc1cccc2c1c(C(=O)NC13CC4CC(CC(C4)C1)C3)cn2CCN1CCOCC1
Activity [1]: < 50%
Activity [6]: < 50%
inhibition [4]: < 50%
inhibition at 10 min, 10 µM [5]: < 50%

N#CCCCn1cc(C(=O)NC23CC4CC(CC(C4)C2)C3)c2ccccc21
EC50 [2]: 31 nM
Emax at 10 min [8]: 105%
EC50 [9]: 630 nM
Emax [3]: 70%
inhibition [4]: < 50%
inhibition at 10 min, 10 µM [5]: < 50%

O=C(NC12CC3CC(CC(C3)C1)C2)c1cc2ccccc2n1CCCCCF
Activity [1]: < 50%
EC50 [2]: 140 nM
Emax [3]: 53.3%
inhibition [4]: < 50%
inhibition at 10 min, 10 µM [5]: < 50%

C[S+]([O-])c1cccc2c(C(=O)NC34CC5CC(CC(C5)C3)C4)cn(CCN3CCOCC3)c12 (stereo unspecified)
Activity [1]: < 50%
Activity [6]: < 50%
inhibition [4]: < 50%
inhibition at 10 min, 10 µM [5]: < 50%

O=C(NC12CC3CC(CC(C3)C1)C2)c1c(F)c2ccccc2n1CCCCCO
Activity [1]: < 50%
EC50 [2]: 610 nM
Emax [3]: 60%
inhibition [4]: < 50%
inhibition at 10 min, 10 µM [5]: < 50%

N#CCCn1cc(C(=O)NC23CC4CC(CC(C4)C2)C3)c2ccccc21
Activity [1]: < 50%
EC50 [2]: 180 nM
Emax [3]: 73.3%
inhibition [4]: < 50%
inhibition at 10 min, 10 µM [5]: < 50%

NCCCCn1c(C(=O)NC23CC4CC(CC(C4)C2)C3)cc2ccccc21
Activity [1]: < 50%
EC50 [2]: 4700 nM
Emax [3]: 86.7%
inhibition [4]: < 50%
inhibition at 10 min, 10 µM [5]: < 50%

O=C(NC12CC3CC(CC(C3)C1)C2)c1cn(CCCCCO)c2ccccc12
EC50 [2]: 62 nM
Emax at 10 min [8]: 76.7%
EC50 [9]: 4100 nM
Emax [3]: 63.3%
inhibition [4]: < 50%
inhibition at 10 min, 10 µM [5]: < 50%

NCCCCCn1c(C(=O)NC23CC4CC(CC(C4)C2)C3)cc2ccccc21
Activity [1]: < 50%
EC50 [2]: 8600 nM
Emax [3]: 93.3%
inhibition [4]: < 50%
inhibition at 10 min, 10 µM [5]: < 50%

O=C(NC1CCCC1)c1cc2ccccc2n1CCCCCO
Activity [1]: < 50%
Activity [6]: < 50%
inhibition [4]: < 50%
inhibition at 10 min, 10 µM [5]: < 50%

CCCCCn1cc(C(=O)CC23CC4CC(CC(C4)C2)C3)c2ccccc21
EC50 [10]: 35 to 40 nM
EC50 [11]: 29 to 89 nM

O=C(NC12CC3CC(CC(C3)C1)C2)c1cn(CCCCO)c2ccccc12
EC50 [2]: 160 nM
Emax at 10 min [8]: 58.3%
EC50 [9]: 13000 nM
Emax [3]: 68.3%
inhibition [4]: < 50%
inhibition at 10 min, 10 µM [5]: < 50%

O=C(NC12CC3CC(CC(C3)C1)C2)c1cc2ccccc2n1CCCC(F)(F)F
Activity [1]: < 50%
EC50 [2]: 490 nM
Emax [3]: 63.3%
inhibition [4]: < 50%
inhibition at 10 min, 10 µM [5]: < 50%

N#CCCCn1c(C(=O)NC23CC4CC(CC(C4)C2)C3)cc2ccccc21
Activity [1]: < 50%
EC50 [2]: 270 nM
Emax [3]: 61.7%
inhibition [4]: < 50%
inhibition at 10 min, 10 µM [5]: < 50%
